# What was measured:
# Experiment in all cases: Competitive isoTOP-ABPP in situ (fragment-treated cells)
# Type in all cases: cell-based
# [1] = molecular target: T1, cysteines in MDA-MB-231 and Ramos cells (Homo sapiens, UniProt Q9NPH0)
# T1 sequence (Q9NPH0 33-428): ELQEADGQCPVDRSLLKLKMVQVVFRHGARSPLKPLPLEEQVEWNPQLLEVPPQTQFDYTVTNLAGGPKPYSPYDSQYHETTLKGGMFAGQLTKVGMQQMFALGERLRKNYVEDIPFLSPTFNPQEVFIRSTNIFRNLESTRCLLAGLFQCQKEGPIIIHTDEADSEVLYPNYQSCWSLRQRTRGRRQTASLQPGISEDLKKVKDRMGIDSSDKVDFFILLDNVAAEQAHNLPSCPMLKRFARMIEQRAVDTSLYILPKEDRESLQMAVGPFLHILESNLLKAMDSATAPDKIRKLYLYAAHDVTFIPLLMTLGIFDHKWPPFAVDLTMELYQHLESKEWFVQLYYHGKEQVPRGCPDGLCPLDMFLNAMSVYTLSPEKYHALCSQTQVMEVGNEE
# [2] = molecular target: cysteines in MDA-MB-231 and Ramos cells (Homo sapiens, UniProt Q14137)
# [3] = molecular target: T2, cysteines in MDA-MB-231 and Ramos cells (Homo sapiens, UniProt P53384)
# T2 sequence (P53384 1-320): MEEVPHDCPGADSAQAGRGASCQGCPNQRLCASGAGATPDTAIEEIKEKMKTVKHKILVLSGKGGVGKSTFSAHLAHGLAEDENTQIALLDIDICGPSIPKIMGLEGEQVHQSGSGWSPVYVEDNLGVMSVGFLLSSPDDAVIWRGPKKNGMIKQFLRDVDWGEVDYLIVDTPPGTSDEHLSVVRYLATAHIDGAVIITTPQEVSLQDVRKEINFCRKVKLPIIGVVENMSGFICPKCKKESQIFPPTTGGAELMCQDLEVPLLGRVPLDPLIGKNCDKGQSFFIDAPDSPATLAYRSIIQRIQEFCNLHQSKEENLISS
# [4] = molecular target: T3, cysteines in MDA-MB-231 and Ramos cells (Homo sapiens, UniProt Q9NRW3)
# T3 sequence (Q9NRW3 1-190): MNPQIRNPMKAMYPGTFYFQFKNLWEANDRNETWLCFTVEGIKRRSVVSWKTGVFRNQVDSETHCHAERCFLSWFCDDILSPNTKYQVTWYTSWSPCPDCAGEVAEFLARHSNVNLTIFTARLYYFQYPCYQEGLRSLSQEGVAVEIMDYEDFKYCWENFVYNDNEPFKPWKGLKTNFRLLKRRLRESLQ
# [5] = molecular target: T4, cysteines in MDA-MB-231 and Ramos cells (Homo sapiens, UniProt Q9NTX5)
# T4 sequence (Q9NTX5 1-307): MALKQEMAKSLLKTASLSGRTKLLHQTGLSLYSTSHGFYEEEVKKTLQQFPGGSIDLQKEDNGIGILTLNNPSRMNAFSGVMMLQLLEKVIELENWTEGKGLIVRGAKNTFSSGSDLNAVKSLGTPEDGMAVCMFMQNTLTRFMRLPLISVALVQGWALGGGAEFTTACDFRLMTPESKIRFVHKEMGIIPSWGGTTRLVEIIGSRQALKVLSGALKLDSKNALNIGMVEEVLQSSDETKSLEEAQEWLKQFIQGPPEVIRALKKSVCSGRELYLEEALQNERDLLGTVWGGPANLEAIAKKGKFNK
# [6] = molecular target: T5, cysteines in MDA-MB-231 and Ramos cells (Homo sapiens, UniProt Q9NX18)
# T5 sequence (Q9NX18 30-166): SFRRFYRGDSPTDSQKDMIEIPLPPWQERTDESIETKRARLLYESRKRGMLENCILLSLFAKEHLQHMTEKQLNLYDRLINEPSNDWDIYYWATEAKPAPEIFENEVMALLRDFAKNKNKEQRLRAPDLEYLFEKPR
# [7] = molecular target: cysteines in MDA-MB-231 and Ramos cells (Homo sapiens, UniProt Q9Y3D2)
# [8] = molecular target: T6, cysteines in MDA-MB-231 and Ramos cells (Homo sapiens, UniProt Q9UPQ0)
# T6 sequence (Q9UPQ0 1-1083): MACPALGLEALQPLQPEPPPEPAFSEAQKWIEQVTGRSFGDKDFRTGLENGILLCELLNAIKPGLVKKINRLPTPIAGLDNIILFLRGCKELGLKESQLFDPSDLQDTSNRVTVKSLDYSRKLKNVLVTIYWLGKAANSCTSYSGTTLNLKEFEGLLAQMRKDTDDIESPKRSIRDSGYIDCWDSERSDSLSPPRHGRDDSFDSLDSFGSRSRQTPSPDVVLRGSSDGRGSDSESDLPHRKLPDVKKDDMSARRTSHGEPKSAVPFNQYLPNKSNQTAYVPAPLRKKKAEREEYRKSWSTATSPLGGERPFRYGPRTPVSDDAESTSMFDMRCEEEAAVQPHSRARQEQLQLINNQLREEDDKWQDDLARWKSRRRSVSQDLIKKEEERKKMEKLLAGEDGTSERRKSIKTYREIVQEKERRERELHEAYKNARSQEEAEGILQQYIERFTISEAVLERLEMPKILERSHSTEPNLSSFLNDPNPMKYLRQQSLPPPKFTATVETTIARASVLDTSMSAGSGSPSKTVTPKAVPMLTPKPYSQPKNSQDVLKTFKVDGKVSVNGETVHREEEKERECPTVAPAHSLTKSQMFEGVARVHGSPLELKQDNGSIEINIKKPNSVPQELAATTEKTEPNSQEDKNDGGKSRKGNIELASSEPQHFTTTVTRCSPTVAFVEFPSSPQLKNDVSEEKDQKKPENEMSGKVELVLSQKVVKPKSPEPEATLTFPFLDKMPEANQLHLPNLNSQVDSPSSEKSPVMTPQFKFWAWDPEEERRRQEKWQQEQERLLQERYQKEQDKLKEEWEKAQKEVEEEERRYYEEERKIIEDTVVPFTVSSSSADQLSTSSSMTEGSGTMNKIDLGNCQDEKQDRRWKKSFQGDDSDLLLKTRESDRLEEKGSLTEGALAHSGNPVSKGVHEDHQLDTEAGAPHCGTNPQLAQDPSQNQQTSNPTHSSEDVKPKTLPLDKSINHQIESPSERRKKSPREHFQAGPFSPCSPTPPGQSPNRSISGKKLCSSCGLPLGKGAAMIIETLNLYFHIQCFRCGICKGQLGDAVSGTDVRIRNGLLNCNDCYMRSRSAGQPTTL
# Chain of cysteines in MDA-MB-231 and Ramos cells (Homo sapiens, UniProt Q9Y3D2) (Q9Y3D2 21-182): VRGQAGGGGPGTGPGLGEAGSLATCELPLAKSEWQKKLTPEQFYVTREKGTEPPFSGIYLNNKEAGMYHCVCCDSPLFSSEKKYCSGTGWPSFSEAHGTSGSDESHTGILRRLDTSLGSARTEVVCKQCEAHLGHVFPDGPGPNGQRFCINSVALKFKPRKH
# Chain of cysteines in MDA-MB-231 and Ramos cells (Homo sapiens, UniProt Q14137) (Q14137 whole entry): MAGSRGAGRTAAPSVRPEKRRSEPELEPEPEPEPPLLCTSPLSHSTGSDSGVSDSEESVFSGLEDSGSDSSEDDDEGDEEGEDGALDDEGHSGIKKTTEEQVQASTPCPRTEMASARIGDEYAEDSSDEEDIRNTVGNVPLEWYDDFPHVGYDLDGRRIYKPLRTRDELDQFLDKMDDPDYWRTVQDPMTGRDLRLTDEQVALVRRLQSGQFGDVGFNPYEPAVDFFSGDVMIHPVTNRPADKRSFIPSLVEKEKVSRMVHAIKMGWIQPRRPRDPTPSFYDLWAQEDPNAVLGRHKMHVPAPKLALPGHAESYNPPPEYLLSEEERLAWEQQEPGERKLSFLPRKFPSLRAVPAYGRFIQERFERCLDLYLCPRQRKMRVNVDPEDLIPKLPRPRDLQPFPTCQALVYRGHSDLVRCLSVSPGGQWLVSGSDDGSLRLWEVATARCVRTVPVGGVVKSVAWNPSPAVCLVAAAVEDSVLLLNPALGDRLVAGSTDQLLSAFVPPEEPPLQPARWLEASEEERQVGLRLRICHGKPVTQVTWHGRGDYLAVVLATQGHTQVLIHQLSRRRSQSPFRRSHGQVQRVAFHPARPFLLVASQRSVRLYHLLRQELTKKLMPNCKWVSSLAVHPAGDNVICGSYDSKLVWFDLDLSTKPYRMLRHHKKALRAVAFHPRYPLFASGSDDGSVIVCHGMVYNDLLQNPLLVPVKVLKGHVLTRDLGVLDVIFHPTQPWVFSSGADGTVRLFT
smiles,measurement,setting,value
COc1ccc(C2CC(c3cccs3)=NN2C(=O)CCl)cc1 (stereo not shown) [compound 4],isoTOP-ABPP reactivity Q9NPH0_C267 ACP6,[1]; 100 μM in situ 231,20.0
same,isoTOP-ABPP reactivity Q14137_C404 BOP1,[2]; 100 μM in situ 231,1.2
same,isoTOP-ABPP reactivity P53384_C235 NUBP1,[3]; 100 μM in situ 231,0.6
same,isoTOP-ABPP reactivity Q9NRW3_C130 APOBEC3C,[4]; 100 μM in situ 231,20.0
same,isoTOP-ABPP reactivity Q9NTX5_C133 ECHDC1,[5]; 100 μM in situ 231,1.7
same,isoTOP-ABPP reactivity Q9NX18_C83 SDHAF2,[6]; 100 μM in situ 231,3.0
same,isoTOP-ABPP reactivity Q9Y3D2_C105 MSRB2,[7]; 100 μM in situ 231,20.0
O=C(CCl)Nc1cccc2ncccc12 [compound 51],isoTOP-ABPP ratio Q9NX18_C83,"[6]; 200 μM, insitu, 231",1.0
CC1CCc2ccccc2N1C(=O)CCl (stereo not shown) [compound 45],isoTOP-ABPP ratio Q9NPH0_C267,"[1]; 200 μM, insitu, 231",20.0
same,isoTOP-ABPP ratio Q9UPQ0_C140,"[8]; 200 μM, insitu, 231",20.0
same,isoTOP-ABPP ratio Q9NRW3_C130,"[4]; 200 μM, insitu, 231",20.0
same,isoTOP-ABPP ratio Q9NTX5_C133,"[5]; 200 μM, insitu, 231",4.2
same,isoTOP-ABPP ratio Q9NX18_C83,"[6]; 200 μM, insitu, 231",3.7
same,isoTOP-ABPP ratio Q9Y3D2_C105,"[7]; 200 μM, insitu, 231",20.0
O=C(CCl)NC(=O)NC12CC3CC(CC(C3)C1)C2 [compound 12],isoTOP-ABPP ratio Q9UPQ0_C140,"[8]; 200 μM, insitu, 231",1.9
same,"isoTOP-ABPP ratio, cysteine P53384_C235","[3]; 200 μM, insitu, 231",0.5
same,isoTOP-ABPP ratio Q9NTX5_C133,"[5]; 200 μM, insitu, 231",1.2
same,isoTOP-ABPP ratio Q9NX18_C83,"[6]; 200 μM, insitu, 231",20.0
same,"isoTOP-ABPP ratio, cysteine Q9Y3D2_C105","[7]; 200 μM, insitu, 231",20.0
O=C(CCl)N1CCN(S(=O)(=O)c2ccccc2F)CC1 [compound 10],"isoTOP-ABPP ratio, cysteine Q9NPH0_C267","[1]; 200 μM, insitu, 231",13.4
same,isoTOP-ABPP ratio Q9UPQ0_C140,"[8]; 200 μM, insitu, 231",3.9
same,"isoTOP-ABPP ratio, cysteine Q14137_C404","[2]; 200 μM, insitu, 231",20.0
same,isoTOP-ABPP ratio Q9NTX5_C133,"[5]; 200 μM, insitu, 231",1.6
same,isoTOP-ABPP ratio Q9NX18_C83,"[6]; 200 μM, insitu, 231",4.4
same,"isoTOP-ABPP ratio, cysteine Q9Y3D2_C105","[7]; 200 μM, insitu, 231",20.0
O=C(CCl)N1CCN(CC(=O)N2CCOCC2)CC1 [compound 29],isoTOP-ABPP ratio Q9NPH0_C267,"[1]; 200 μM, insitu, ramos",2.1
same,isoTOP-ABPP ratio Q14137_C404,"[2]; 200 μM, insitu, ramos",1.5
same,isoTOP-ABPP ratio Q9NRW3_C130,"[4]; 200 μM, insitu, ramos",13.3
same,isoTOP-ABPP ratio Q9NX18_C83,"[6]; 200 μM, insitu, ramos",1.9
CC(C)CCOCCNC(=O)CCl [compound 27],isoTOP-ABPP ratio Q9NPH0_C267,"[1]; 200 μM, insitu, 231",1.3
same,isoTOP-ABPP ratio Q9UPQ0_C140,"[8]; 200 μM, insitu, 231",0.7
same,isoTOP-ABPP ratio Q14137_C404,"[2]; 200 μM, insitu, 231",0.6
same,isoTOP-ABPP ratio Q9NRW3_C130,"[4]; 200 μM, insitu, 231",1.3
same,isoTOP-ABPP ratio Q9NTX5_C133,"[5]; 200 μM, insitu, 231",1.5
same,isoTOP-ABPP ratio Q9NX18_C83,"[6]; 200 μM, insitu, 231",1.5
same,isoTOP-ABPP ratio Q9Y3D2_C105,"[7]; 200 μM, insitu, 231",1.5
O=C(CCl)N1CCC(Cc2ccccc2)CC1 [compound 9],isoTOP-ABPP reactivity P53384_C235 NUBP1,"[3]; 200 μM, insitu, 231",6.8
O=C(CCl)NC12CC3CC(CC(C3)C1)C2 [compound 21],isoTOP-ABPP ratio Q9UPQ0_C140,"[8]; 200 μM, insitu, 231",0.8
same,"isoTOP-ABPP ratio, cysteine Q14137_C404","[2]; 200 μM, insitu, 231",1.1
same,"isoTOP-ABPP ratio, cysteine Q9NRW3_C130","[4]; 200 μM, insitu, 231",1.3
same,isoTOP-ABPP ratio Q9NTX5_C133,"[5]; 200 μM, insitu, 231",1.1
same,isoTOP-ABPP ratio Q9NX18_C83,"[6]; 200 μM, insitu, 231",1.3
COc1ccc2c(c1)CCCN2C(=O)CCl [compound 2],isoTOP-ABPP reactivity Q9UPQ0_C140 LIMCH1,"[8]; 200 μM, insitu, 231",20.0
same,isoTOP-ABPP reactivity Q14137_C404 BOP1,"[2]; 200 μM, insitu, 231",20.0
same,isoTOP-ABPP reactivity Q9NRW3_C130 APOBEC3C,"[4]; 200 μM, insitu, 231",20.0
same,isoTOP-ABPP reactivity Q9NTX5_C133 ECHDC1,"[5]; 200 μM, insitu, 231",1.5
same,isoTOP-ABPP reactivity Q9NX18_C83 SDHAF2,"[6]; 200 μM, insitu, 231",3.1
Cn1cc(S(=O)(=O)N2CCOCC2)cc1C(=O)NC(=O)CCl [compound 11],isoTOP-ABPP ratio Q9UPQ0_C140,[8]; 100 μM in situ 231,1.0
same,isoTOP-ABPP ratio Q9NTX5_C133,[5]; 100 μM in situ 231,1.0
same,isoTOP-ABPP ratio Q9NX18_C83,[6]; 100 μM in situ 231,1.1
same,"isoTOP-ABPP ratio, cysteine Q9Y3D2_C105",[7]; 100 μM in situ 231,1.3
O=C(CCl)NCCc1c[nH]c2ccccc12 [compound 13],isoTOP-ABPP ratio Q9UPQ0_C140,"[8]; 200 μM, insitu, 231",1.1
same,"isoTOP-ABPP ratio, cysteine Q14137_C404","[2]; 200 μM, insitu, 231",1.1
same,isoTOP-ABPP ratio Q9NTX5_C133,"[5]; 200 μM, insitu, 231",1.1
Cc1ccc(C=C(C#N)C(=O)NCCN2CCOCC2)cc1 [compound 41],isoTOP-ABPP ratio Q9UPQ0_C140,"[8]; 200 μM, insitu, 231",0.5
same,isoTOP-ABPP ratio P53384_C235,"[3]; 200 μM, insitu, 231",0.2
same,isoTOP-ABPP ratio Q9NRW3_C130,"[4]; 200 μM, insitu, 231",0.9
same,isoTOP-ABPP ratio Q9Y3D2_C105,"[7]; 200 μM, insitu, 231",1.2
C=CC(=O)Nc1cc(F)c(N2CCN(C(=O)OC(C)(C)C)CC2)c(F)c1 [compound 38],isoTOP-ABPP ratio Q9UPQ0_C140,"[8]; 200 μM, insitu, 231",2.5
same,isoTOP-ABPP ratio P53384_C235,"[3]; 200 μM, insitu, 231",2.0
same,isoTOP-ABPP ratio Q9Y3D2_C105,"[7]; 200 μM, insitu, 231",1.6
C=CC(=O)N(Cc1cccnc1)c1cc(C(F)(F)F)cc(C(F)(F)F)c1 [compound 31],isoTOP-ABPP ratio P53384_C235,"[3]; 200 μM, insitu, 231",0.7
COc1cc2c(cc1OC)CN(C(=O)CCl)CC2 [compound 8],isoTOP-ABPP reactivity Q9NPH0_C267 ACP6,"[1]; 200 μM, insitu, 231",20.0
same,isoTOP-ABPP reactivity Q9UPQ0_C140 LIMCH1,"[8]; 200 μM, insitu, 231",20.0
same,isoTOP-ABPP reactivity P53384_C235 NUBP1,"[3]; 200 μM, insitu, 231",0.6
same,isoTOP-ABPP reactivity Q9NTX5_C133 ECHDC1,"[5]; 200 μM, insitu, 231",2.0
same,isoTOP-ABPP reactivity Q9Y3D2_C105 MSRB2,"[7]; 200 μM, insitu, 231",20.0

# From patent publication US10670605B2, “Cysteine reactive probes and uses thereof” (The Scripps Research Institute, priority 2015, dated 2020)
